Experimental data from patent US20130189741A1, “COMPOSITIONS AND METHODS FOR REPROGRAMMING MAMMALIAN CELLS” (Cellscript, Inc., priority 2009, published 2013).

System: BJ fibroblasts
Test: Feeder-free reprogramming of BJ fibroblasts to iPSCs on MATRIGEL GFR matrix (Example 11)
Format: cell-based, human
Details: Day 17
Method: In EXAMPLE 11 embodiments, each in vitro-synthesized pseudouridine-containing ssRNA (i.e., synthesized using ΨTP in place of UTP in the IVT reaction) that encoded an iPSC induction factor [e.g., OCT4, SOX2, KLF4, LIN28, and either cMYC or cMYC(T58A)] or other pseudo-uridine-containing ssRNAs transfected together with the iPSC induction factors was treated with RNase III with 1 mM Mg(OAc)2 prior to capping and tailing of the ssRNA. In this EXAMPLE 11, the RNAse III treatment reactions also contained 0.8 U/microliter SCRIPTGUARD™ RNase inhibitor (CELLSCRIPT, INC.).
Prior to use for reprogramming, BJ fibroblasts (ATCC) were plated 5×10^4 cells per well on 6-well tissue culture plates coated with 83 ng per well of MATRIGEL™ GFR matrix (BD Biosciences, San Jose, Calif.) in Advanced MEM (Invitrogen, Carlsbad, Calif.) supplemented with 10% FBS (Fisher) and 2 mM GLUTAMAX™-I (Invitrogen, Carlsbad, Calif.), a minimum essential medium (MEM) useful for growth of fibroblast cells.
On the following day, the medium was changed to a “Feeder-free Reprogramming Medium” developed by the present applicants. This Feeder-free Reprogramming Medium was composed of Dulbecco's modified Eagle medium with nutrient mixture F-12 (DMEM/F12; (DMEM/F12; Invitrogen, Carlsbad, Calif.) supplemented with 20% KNOCKOUT™ serum replacement (Invitrogen), 2 mM GLUTAMAX™-I (Invitrogen), 0.1 mM non-essential amino acids solution (Invitrogen), 2 micromolar of the transforming growth factor 0 (TGFβ) inhibitor STEMOLECULE™ SB431542 (Stemgent®, Cambridge, Mass., USA), 0.5 micromolar of the MEK signaling pathway inhibitor STEMOLECULE™ PD0325901 (Stemgent), and/or 10 ng/ml the recombinant mouse cytokine, leukemia inhibitory factor (LIF or mLIF; Invitrogen, Carlsbad, Calif.), and 100 ng/ml basic human recombinant fibroblast growth factor (FGF; Invitrogen) with penicillin-streptomycin antibiotics. In some experiments, a lower or higher concentration of one or more of these inhibitors is used (e.g., 1-20 micromolar of the TGFβ inhibitor, 0.5-10 micromolar of the MEK signaling inhibitor, and/or 5-50 ng/ml the recombinant mouse cytokine, leukemia inhibitory factor). Since some of the molecules being inhibited may be introduced by the reagents or media used (e.g., TGFβ in the MATRIGEL™ or other extracellular matrix, the concentrations of the inhibitors used may vary based on the reagents and media used. In some experiments, the TGFβ inhibitor, MEK signaling inhibitor, and/or LIF was omitted from the feeder-free reprogramming medium. The Feeder-free Reprogramming Medium was changed daily one hour prior to each transfection with mRNA reprogramming factors. […] kit (Minis Bio LLC, Madison, Wis., USA) as described in the product literature: Briefly, a solution comprising a mixture of all of the mRNA reprogramming factors was diluted with 250 microliters of OPTI-MEM® I reduced serum medium (Invitrogen, Carlsbad, Calif.), and then 2.4 microliters of TRANSIT™ BOOST was added and mixed, followed by 2.4 microliters of the TRANSIT™ transfection reagent. In some embodiments, no inhibitor of expression of an innate immune response pathway was used. In some other embodiments, 132 ng of pseudouridine-containing mRNA encoding the B18R protein was added to the reprogramming factors comprising mRNA encoding OCT4, SOX2, KLF4, LIN28, and cMYC for reprogramming BJ fibroblasts. This transfection mix was applied dropwise to cells. Cells were then incubated at 37° C. in 5% CO2 until the next day's transfection. After 18 transfections, the medium was changed to a different “iPSC Maintenance Medium” that that was composed of DMEM/F12 supplemented with 20% KNOCKOUT™ serum replacement, 1 mM L-glutamine, 0.1 mM non-essential amino acids solution, and 100 ng/ml basic human recombinant fibroblast growth factor (FGF) (all from Invitrogen, Carlsbad, Calif.) with penicillin-streptomycin antibiotics for a few more days until iPSC colonies were big enough to pick manually. […]

Row | SMILES | iPSC Colonies Observed (PD0325901 0 μM, 2 micromolar SB431542) | iPSC Colonies Observed (PD0325901 0.5 μM, 2 micromolar SB431542) | iPSC Colonies Observed (PD0325901 1 μM, 2 micromolar SB431542) | iPSC Colonies Observed (PD0325901 2 μM, 2 micromolar SB431542) | iPSC Colonies Observed (PD0325901 10 μM, 2 micromolar SB431542) | iPSC Colonies Observed (PD0325901 15 μM, 2 micromolar SB431542) | iPSC Colonies Observed (SB431542 0 μM, five-factor Ψ-mRNA mix daily for 17 days) | iPSC Colonies Observed (SB431542 1 μM) | iPSC Colonies Observed (SB431542 2 μM) | iPSC Colonies Observed (SB431542 4 μM)
1 | O=C(NOC[C@H](O)CO)c1ccc(F)c(F)c1Nc1ccc(I)cc1F [PD0325901] | 1 | 77 | 27 | 94 | 11 | 0 |  |  |  | 
2 | NC(=O)c1ccc(-c2nc(-c3ccc4c(c3)OCO4)c(-c3ccccn3)[nH]2)cc1 [SB431542] |  |  |  |  |  |  | 0 | 9 | 71 | 160
